# From patent US20250326713A1, “INHIBITORS OF MsbA AS ANTIBIOTICS, PHARMACEUTICAL COMPOSITIONS, AND USES THEREOF” (priority 2022, published 2025)
# Test system: various strains of bacteria
# Test: Antimicrobial potency: bacterial growth inhibition by OD600 (Antibacterial assay 1, MITC95)
# Type: cell-based, A. baumannii
# Conditions: Acinetobacter baumannii, 20 h, lowest concentration giving >95% growth inhibition, CAMHB, 18-22 h
# Method: The concentrations of compounds required to inhibit the growth of various strains of bacteria were determined in an assay that assessed bacterial growth by measuring optical density at 600 nm (OD600). Test articles were dissolved in 100% DMSO and serially diluted two-fold from their maximal concentration in 100% DMSO. Forty-nine μl of bacterial inoculum (at approx. 2×10^5 cfu/mL in CAMHB) were put into wells of an assay plate. One μl of compound or DMSO was transferred from the source plate to the assay plate. The completed assay plates were then incubated at 35+2degC for 18-22 h. Bacterial growth was measured by reading OD600 on a spectrophotometer. Data analysis calculates the lowest concentration of compound which results in >95% growth inhibition (minimum inhibitory threshold concentration 95%, MITC95).
row,SMILES,MIC [µM]
1,"O=C(O)c1cc(CN[C@H]2C[C@@H](NCc3ccc(NS(=O)(=O)c4cnn(-c5ccc(Cl)cc5)c4)c(C(=O)O)c3)C2)ccc1NS(=O)(=O)c1cnn(-c2ccc(Cl)cc2)c1 [Compound 48, 5-((((1s, 3s)-3-((3-carboxy-4-((1-(4-chlorophenyl)-1H-pyrazole)-4-sulfonamido)benzyl)amino)cyclobutyl)amino)methyl)-2-((1-(4-chlorophenyl)-1H-pyrazole)-4-sulfonamido)benzoic acid]",0.321
2,O=C(NCc1cccc(Cl)c1)C(=O)Nc1ccc(OC2CN(Cc3ccc(NS(=O)(=O)c4ccc(-c5ccc(Cl)cc5)cc4)c(C(=O)O)c3)C2)cc1C(=O)O [Compound 63],0.196
3,C[C@]1(NCc2ccc(NS(=O)(=O)c3cnn(-c4ccc(Cl)cc4)c3)c(C(=O)O)c2)C[C@@H](NCc2ccc(NS(=O)(=O)c3cnn(-c4ccc(Cl)cc4)c3)c(C(=O)O)c2)C1 [Compound 51],3.13
4,CC1(Oc2ccc(NS(=O)(=O)N3CCOC(c4ccc(F)cc4)C3)c(C(=O)O)c2)CN(Cc2ccc(NS(=O)(=O)N3CCOC(c4ccc(F)cc4)C3)c(C(=O)O)c2)C1 (centres unmarked) [Compound 45],0.0978
5,O=C(O)c1cc(CN2CC(Oc3ccc(NS(=O)(=O)c4cnn(-c5ccc(Cl)cn5)c4)c(C(=O)O)c3)C2)ccc1NS(=O)(=O)c1cnn(-c2ccc(Cl)cn2)c1 [Compound 121],0.277
6,O=C(NCc1ccc(Cl)cc1)C(=O)Nc1ccc(CN2CC(Oc3ccc(NS(=O)(=O)N4CCOC(c5ccc(F)cc5)C4)c(C(=O)O)c3)C2)cc1C(=O)O (centres unmarked) [Compound 56],0.0978
7,O=C(O)c1cc(OC2CN(Cc3ccc(NS(=O)(=O)N4CCOC(c5ccc(F)cc5)C4)c(C(=O)O)c3)C2)ccc1NS(=O)(=O)N1CCOC(CCO)C1 (centres unmarked) [Compound 47],1.57
8,O=C(O)c1cc(OC2CN(Cc3ccc(NS(=O)(=O)N4CCOC(c5ccc(F)cc5)C4)c(C(=O)O)c3)C2)ccc1NS(=O)(=O)CCc1ccc(F)cc1 (centres unmarked) [Compound 84],0.0691
9,"O=C(O)c1cc(CN2CC(Oc3ccc(NS(=O)(=O)c4cnn(-c5ccc(F)cc5)c4)c(C(=O)O)c3)C2)ccc1NS(=O)(=O)c1cnn(-c2ccc(F)cc2)c1 [Compound 115, 5-((1-(3-carboxy-4-(1-(4-fluorophenyl)-1H-pyrazole-4-sulfonamido)benzyl)azetidin-3-yl)oxy)-2-(1-(4-fluorophenyl)-1H-pyrazole-4-sulfonamido)benzoic acid]",0.277
10,O=C(CCc1ccc(Cl)c(Cl)c1)Nc1ccc(OC2CN(Cc3ccc(NS(=O)(=O)c4cnn(-c5ccc(Cl)cc5)c4)c(C(=O)O)c3)C2)cc1C(=O)O [Compound 71],0.0978
11,"O=C(O)c1cc(CN2CC(Oc3ccc(NS(=O)(=O)CCc4ccc(F)cc4)c(C(=O)O)c3)C2)ccc1NS(=O)(=O)CCc1ccc(F)cc1 [Compound 78, 5-((1-(3-carboxy-4-((2-(4-fluorophenyl)ethyl)sulfonamido)benzyl)azetidin-3-yl)oxy)-2-((2-(4-fluorophenyl)ethyl)sulfonamido)benzoic acid]",0.782
12,O=C(NCc1ccc(Cl)cc1)C(=O)Nc1ccc(OC2CN(Cc3ccc(NS(=O)(=O)CCc4ccc(Cl)cc4)c(C(=O)O)c3)C2)cc1C(=O)O [Compound 61],0.196
13,O=C(O)c1cc(CNC2CC(CNc3ccc(NS(=O)(=O)c4cnn(-c5ccc(F)cc5)c4)c(C(=O)O)c3)C2)ccc1NS(=O)(=O)c1cnn(-c2ccc(Cl)cc2)c1 (centres unmarked) [Compound 29],0.0489
14,O=C(O)c1cc(NCC2CC(NCc3ccc(NS(=O)(=O)N4CC(Oc5ccc(F)cc5)C4)c(C(=O)O)c3)C2)ccc1NS(=O)(=O)c1cnn(-c2ccc(F)cc2)c1 (centres unmarked) [Compound 28],0.196
15,O=C(Cc1cccc(Cl)c1)Nc1ccc(OC2CN(Cc3ccc(NS(=O)(=O)c4cnn(-c5ccc(Cl)cc5)c4)c(C(=O)O)c3)C2)cc1C(=O)O [Compound 73],0.196
16,Cn1nc(-c2ccc(F)cc2)cc1S(=O)(=O)Nc1ccc(CNC2CC(CNc3ccc(NS(=O)(=O)c4cnn(-c5ccc(F)cc5)c4)c(C(=O)O)c3)C2)cc1C(=O)O (centres unmarked) [Compound 33],0.0489
17,O=C(O)c1cc(CN2CC(Oc3ccc(NS(=O)(=O)c4ccc(-c5ccc(F)cc5)cc4)c(C(=O)O)c3)C2)ccc1NS(=O)(=O)c1ccc(-c2ccc(F)cc2)cc1 [Compound 98],0.0692
18,"O=C(O)c1cc(OC[C@H]2C[C@H](Oc3ccc(NS(=O)(=O)c4cnn(-c5ccc(Cl)cc5)c4)c(C(=O)O)c3)CN2)ccc1NS(=O)(=O)c1cnn(-c2ccc(Cl)cc2)c1 [Compound 24, trans-5-((5-((3-carboxy-4-((1-(4-chlorophenyl)-1H-pyrazole)-4-sulfonamido)-phenoxy)methyl)pyrrolidin-3-yl)oxy)-2-((1-(4-chlorophenyl)-1H-pyrazole)-4-sulfonamido)benzoic acid]",0.277
19,O=C(CCCC(=O)c1ccc(F)cc1)Nc1ccc(OC2CN(Cc3ccc(NS(=O)(=O)c4cnn(-c5ccc(Cl)cc5)c4)c(C(=O)O)c3)C2)cc1C(=O)O [Compound 75],0.277
20,O=C(O)c1cc(CN2CC(Oc3ccc(NS(=O)(=O)c4ccc(-c5ccc(F)cc5)cc4)c(C(=O)O)c3)C2)ccc1NS(=O)(=O)CCc1ccc(F)cc1 [Compound 102],0.0489
21,Cn1nc(-c2ccccc2)cc1S(=O)(=O)Nc1ccc(CN2CC(Oc3ccc(NS(=O)(=O)c4ccc(-c5ccc(Cl)cc5)cc4)c(C(=O)O)c3)C2)cc1C(=O)O [Compound 106],0.0489
22,O=C(O)c1cc(OC2CN(Cc3ccc(NS(=O)(=O)c4ccc(-c5ccc(Cl)cc5)s4)c(C(=O)O)c3)C2)ccc1NS(=O)(=O)c1ccc(-c2ccc(F)cc2)cc1 [Compound 107],0.0489
23,O=C(O)c1cc(CNC2CC(CNc3ccc(NS(=O)(=O)c4cnn(-c5ccc(Cl)cc5)c4)c(C(=O)O)c3)C2)ccc1NS(=O)(=O)c1cnn(-c2ccc(F)cc2)c1 (centres unmarked) [Compound 35],0.0489

# The remaining lines, values ahead:
row,MIC [µM],SMILES
1,0.0346,"O=C(NCc1ccc(Cl)cc1)C(=O)Nc1ccc(OC2CN(Cc3ccc(NS(=O)(=O)c4ccc(-c5ccc(Cl)cc5)cc4)c(C(=O)O)c3)C2)cc1C(=O)O [Compound 54, 5-((1-(3-carboxy-4-((4′-chloro-[1,1′-biphenyl])-4-sulfonamido)benzyl)azetidin-3-yl)oxy)-2-(2-((4-chlorobenzyl)amino)-2-oxoacetamido)benzoic acid]"
2,0.0346,O=C(O)c1cc(CN2CC(Oc3ccc(NS(=O)(=O)c4ccc(-c5ccc(Cl)cc5)cc4)c(C(=O)O)c3)C2)ccc1NS(=O)(=O)c1cnn(-c2ccc(F)cc2)c1 [Compound 104]
3,0.0245,O=C(O)c1cc(CN2CC(Oc3ccc(NS(=O)(=O)c4ccc(-c5cccc(Cl)c5)cc4)c(C(=O)O)c3)C2)ccc1NS(=O)(=O)CCc1ccc(Cl)cc1 [Compound 101]
4,0.0122,O=C(NCc1ccc(Cl)cc1)C(=O)Nc1ccc(OC2CN(Cc3ccc(NS(=O)(=O)N4CCOC(c5ccc(Cl)cc5)C4)c(C(=O)O)c3)C2)cc1C(=O)O (centres unmarked) [Compound 60]
5,0.0489,CCCCc1ccc(S(=O)(=O)Nc2ccc(CN3CC(Oc4ccc(NS(=O)(=O)c5ccc(-c6ccc(F)cc6)cc5)c(C(=O)O)c4)C3)cc2C(=O)O)cc1 [Compound 108]
6,0.0489,O=C(CCCCCc1ccccc1)Nc1ccc(OC2CN(Cc3ccc(NS(=O)(=O)c4cnn(-c5ccc(Cl)cc5)c4)c(C(=O)O)c3)C2)cc1C(=O)O [Compound 66]
7,< 0.00306,O=C(O)c1cc(OC[C@H]2C[C@@H](NCc3ccc(NS(=O)(=O)N4CCOC(c5ccc(F)cc5)C4)c(C(=O)O)c3)C2)ccc1NS(=O)(=O)c1cnn(-c2ccc(Cl)cc2)c1 (some centres unmarked) [Compound 89]
8,0.00611,O=C(O)c1cc(OC[C@H]2C[C@@H](NCc3ccc(NS(=O)(=O)N4CCOC(c5ccc(F)cc5)C4)c(C(=O)O)c3)C2)ccc1NS(=O)(=O)c1cnc(-c2ccc(F)cc2)s1 (some centres unmarked) [Compound 92]
9,0.0086,O=C(O)c1cc(CN[C@H]2C[C@@H](COc3ccc(NS(=O)(=O)c4ccc(-c5ccc(Cl)cc5)s4)c(C(=O)O)c3)C2)ccc1NS(=O)(=O)CCc1ccc(Cl)cc1 [Compound 94]
10,0.0245,"O=C(O)c1cc(OCC2CCC(COc3ccc(NS(=O)(=O)c4cnn(-c5ccc(Cl)cc5)c4)c(C(=O)O)c3)O2)ccc1NS(=O)(=O)c1cnn(-c2ccc(Cl)cc2)c1 (centres unmarked) [Compound 19, 5-((5-((3-Carboxy-4-((1-(4-chlorophenyl)-1H-pyrazole)-4-sulfonamido)-phenoxy)methyl)tetrahydrofuran-2-yl)methoxy)-2-((1-(4-chlorophenyl)-1H-pyrazole)-4-sulfonamido)benzoic acid]"
11,0.0122,O=C(O)c1cc(CN2CC(Oc3ccc(NS(=O)(=O)c4cnn(-c5ccc(Cl)cc5)c4)c(C(=O)O)c3)C2)ccc1NS(=O)(=O)CCCCc1ccc(Cl)cc1 [Compound 41]
12,0.0346,O=C(O)c1cc(OC2CN(Cc3ccc(NS(=O)(=O)c4cnn(-c5ccc(Cl)cc5)c4)c(C(=O)O)c3)C2)ccc1NS(=O)(=O)CCc1ccc(F)cc1 [Compound 82]
13,< 0.0488,O=C(O)c1cc(COC2CC(OCc3ccc(NS(=O)(=O)c4ccc(-c5ccc(Cl)cc5)cc4)c(C(=O)O)c3)C2)ccc1NS(=O)(=O)CCc1ccc(Cl)cc1 (centres unmarked) [Compound 17]
14,0.0173,Cn1nc(-c2ccc(F)cc2)cc1S(=O)(=O)Nc1ccc(CN[C@H]2C[C@@H](COc3ccc(NS(=O)(=O)c4cnn(-c5ccc(Cl)cc5)c4)c(C(=O)O)c3)C2)cc1C(=O)O [Compound 91]

# Same assay, conditions: lowest concentration giving >95% growth inhibition, CAMHB, 18-22 h
row,SMILES,MIC [µM]
1,"O=C(O)c1cc(CNC2CC(COc3ccc(NS(=O)(=O)c4cnn(-c5ccc(Cl)cc5)c4)c(C(=O)O)c3)C2)ccc1NS(=O)(=O)c1cnn(-c2ccc(Cl)cc2)c1 (centres unmarked) [Compound 87, 5-(((1s, 3s)-3-((3-carboxy-4-((1-(4-chlorophenyl)-1H-pyrazole)-4-sulfonamido)benzyl)amino)cyclobutyl)methoxy)-2-((1-(4-chlorophenyl)-1H-pyrazole)-4-sulfonamido)benzoic acid]",0.0245
